molecular target: T1, FLT3 D835Y (Homo sapiens, UniProt P36888, D835Y); test: DiscoverX KINOMEscan competition binding, FLT3 D835Y
T1 construct: host or cells: E. coli BL21-derived host (T7 phage) or HEK-293
T1 sequence (P36888 27-993 D835Y): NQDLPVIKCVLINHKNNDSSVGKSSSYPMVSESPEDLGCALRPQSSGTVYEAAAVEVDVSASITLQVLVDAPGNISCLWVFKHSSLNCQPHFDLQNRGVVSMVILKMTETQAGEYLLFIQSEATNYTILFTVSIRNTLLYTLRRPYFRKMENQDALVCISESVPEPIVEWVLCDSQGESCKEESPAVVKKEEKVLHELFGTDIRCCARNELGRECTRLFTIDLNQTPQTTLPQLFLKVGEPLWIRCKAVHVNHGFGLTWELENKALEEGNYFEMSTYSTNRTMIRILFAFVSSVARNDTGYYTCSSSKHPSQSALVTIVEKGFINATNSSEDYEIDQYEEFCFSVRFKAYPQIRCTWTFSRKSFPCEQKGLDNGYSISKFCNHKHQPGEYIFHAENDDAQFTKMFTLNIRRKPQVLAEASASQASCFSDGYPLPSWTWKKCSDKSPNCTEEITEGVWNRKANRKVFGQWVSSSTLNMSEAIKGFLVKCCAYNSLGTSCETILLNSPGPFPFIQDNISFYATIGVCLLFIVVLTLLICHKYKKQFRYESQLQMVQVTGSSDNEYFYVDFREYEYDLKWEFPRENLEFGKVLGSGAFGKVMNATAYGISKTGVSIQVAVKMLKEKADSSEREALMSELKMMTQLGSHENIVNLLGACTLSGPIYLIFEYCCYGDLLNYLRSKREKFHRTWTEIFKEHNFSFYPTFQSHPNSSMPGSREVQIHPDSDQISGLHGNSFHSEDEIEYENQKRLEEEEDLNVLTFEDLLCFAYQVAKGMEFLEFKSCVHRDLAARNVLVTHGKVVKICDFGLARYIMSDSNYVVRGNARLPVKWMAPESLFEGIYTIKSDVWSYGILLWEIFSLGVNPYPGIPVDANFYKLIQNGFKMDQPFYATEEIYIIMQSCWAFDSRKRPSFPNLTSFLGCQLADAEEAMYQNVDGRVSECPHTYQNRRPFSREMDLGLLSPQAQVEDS
From the text: Kinase binding data were obtained for various exemplary compounds prepared according to Examples 1-24 using the DiscoverX KINOMVIEscan® active site-directed competition binding site-directed assay protocol described below. […] As a result, the data report thermodynamic interaction affinities (Kd values), rather than IC50 values that are dependent on ATP concentrations. The assay uses a DNA-tagged version of the protein kinase, and an immobilized ligand bound to a solid support. Compounds that directly or indirectly prevent kinase binding to the immobilized ligand reduce the amount of kinase captured on the solid support, which is detected using an ultra-sensitive qPCR method. Affinity constants reported from the assay have been reported to be independent of the immobilized ligand used that is coupled to the solid support (See supplemental information in Fabian, M. A. et. al., (2005) Nat. Biotechnol. 23, 329-336; Wodicka, L. M. et. al., (2010) Chem. Biol. 17, 1241-1249.)
Kinase-tagged T7 phage strains were prepared in an E. coli host derived from the BL21 strain. E. coli were grown to log-phase and infected with T7 phage and incubated with shaking at 32° C. until lysis. The lysates were centrifuged and filtered to remove cell debris. The remaining kinases were produced in HEK-293 cells and subsequently tagged with DNA for qPCR detection. Streptavidin-coated magnetic beads were treated with biotinylated small molecule ligands for 30 minutes at room temperature to generate affinity resins for kinase assays. The liganded beads were blocked with excess biotin and washed with blocking buffer (SeaBlock (Pierce), 1% BSA, 0.05% Tween 20, 1 mM DTT) to remove unbound ligand and to reduce non-specific binding. Binding reactions were assembled by combining kinases, liganded affinity beads, and test compounds in 1× binding buffer (20% SeaBlock, 0.17×PBS, 0.05% Tween 20, 6 mM DTT). Test compounds were prepared as 111× stocks in 100% DMSO. Kds were determined using an 11-point 3-fold compound dilution series with three DMSO control points. All compounds for Kd measurements are distributed by acoustic transfer (non-contact dispensing) in 100% DMSO. The compounds were then diluted directly into the assays such that the final concentration of DMSO was 0.9%. All reactions were performed in polypropylene 384-well plates. Each was a final volume of 0.02 mL. The assay plates were incubated at room temperature with shaking for 1 hour and the affinity beads were washed with wash buffer (1×PBS, 0.05% Tween 20). The beads were then re-suspended in elution buffer (1×PBS, 0.05% Tween 20, 0.5 μM nonbiotinylated affinity ligand) and incubated at room temperature with shaking for 30 minutes. The kinase concentration in the eluates was measured by qPCR.
Binding constants (Kds) were calculated with a standard dose-response curve using the Hill equation. The Hill Slope was set to −1. Curves were fitted using a non-linear least square fit with the Levenberg-Marquardt algorithm.

Q: With FC(F)c1cn2c(-c3cccc(N[C@H]4CNC[C@@H]4F)n3)cnc2cn1 [Compound 16, 6-(6-(difluoromethyl)imidazo[1,2-a]pyrazin-3-yl)-N-((3S,4S)-4-fluoropyrrolidin-3-yl)pyridin-2-amine] as the molecule, how does the Kd read?
A: 0.053 nM

Q: F[C@H]1CNC[C@@H]1Nc1cccc(-c2cnc3cnc(C4CC4)cn23)n1 [Compound 50, 6-(6-cyclopropylimidazo[1,2-a]pyrazin-3-yl)-N-((3S,4S)-4-fluoropyrrolidin-3-yl)pyridin-2-amine] was tested. Which Kd did it give?
A: 0.044 nM

Q: Which Kd does the source give for CC1(c2cn3c(-c4cccc(N[C@H]5CNCC56CC6)n4)cnc3cn2)CC1 [Compound 5, (R)-N-(6-(6-(1-methylcyclopropyl)imidazo[1,2-a]pyrazin-3-yl)pyridin-2-yl)-5-azaspiro[2.4]heptan-7-amine] here?
A: 0.036 nM

Q: Which Kd does the source give for FC(F)c1cn2c(-c3cccc(N[C@H]4CNCC[C@@H]4F)n3)cnc2cn1 [Compound 25, 6-(6-(difluoromethyl)imidazo[1,2-a]pyrazin-3-yl)-N-((3S,4S)-4-fluoropiperidin-3-yl)pyridin-2-amine] here?
A: 0.071 nM

Q: CC1(c2cn3c(-c4cccc(N[C@@H]5CCNC5)n4)cnc3cn2)CC1 [Compound 3, (R)-6-(6-(1-methylcyclopropyl)imidazo[1,2-a]pyrazin-3-yl)-N-(pyrrolidin-3-yl)pyridin-2-amine] was tested. Which Kd did it give?
A: 0.053 nM

Q: Which Kd does the source give for Cn1cc(-c2cn3c(-c4cccc(N[C@H]5CNC[C@@H]5F)n4)cnc3cn2)cn1 [Compound 52, N-((3S,4S)-4-fluoropyrrolidin-3-yl)-6-(6-(1-methyl-1H-pyrazol-4-yl)imidazo[1,2-a]pyrazin-3-yl)pyridin-2-amine] here?
A: 0.064 nM

Q: For CC(C)(O)c1cn2c(-c3cccc(N[C@H]4CNCC[C@@H]4F)n3)cnc2cn1 [Compound 31, 2-(3-(6-(((3S,4S)-4-fluoropiperidin-3-yl)amino)pyridin-2-yl)imidazo[1,2-a]pyrazin-6-yl)propan-2-ol], which Kd is on record?
A: 0.18 nM

Q: Which Kd does the source give for CC(C)(O)c1cn2c(-c3cccc(N[C@@H]4CCCNC4)n3)cnc2cn1 [Compound 30, (R)-2-(3-(6-(piperidin-3-ylamino)pyridin-2-yl)imidazo[1,2-a]pyrazin-6-yl)propan-2-ol] here?
A: 0.47 nM

Q: Which Kd does the source give for FC(F)(F)C1(c2cn3c(-c4cccc(N[C@@H]5CCNC5)n4)cnc3cn2)CC1 [Compound 10, (R)-N-(pyrrolidin-3-yl)-6-(6-(1-(trifluoromethyl)cyclopropyl)imidazo[1,2-a]pyrazin-3-yl)pyridin-2-amine] here?
A: 0.044 nM

Q: Which Kd does the source give for CC1(c2cn3c(-c4cccc(N[C@H]5CNC[C@@H]5F)n4)cnc3cn2)CC1 [Compound 1, N-((3S,4S)-4-fluoropyrrolidin-3-yl)-6-(6-(1-methylcyclopropyl)imidazo[1,2-a]pyrazin-3-yl)pyridin-2-amine] here?
A: 0.049 nM

Q: FC(F)(F)COc1cn2c(-c3cccc(N[C@@H]4CCNC4)n3)cnc2cn1 [Compound 38, (R)-N-(pyrrolidin-3-yl)-6-(6-(2,2,2-trifluoroethoxy)imidazo[1,2-a]pyrazin-3-yl)pyridin-2-amine] was tested. Which Kd did it give?
A: 0.035 nM

From patent US12612410B2 (CHILDREN'S HOSPITAL MEDICAL CENTER, priority 2020, dated 2026)
